Patent US20250197374A1, “WEE1 DEGRADING COMPOUNDS AND USES THEREOF” (BRISTOL-MYERS SQUIBB COMPANY, priority 2023, published 2025)

Legend:
Type in all cases: cell-based
MDA-MB-231 cells = experiment: MDA-MB-231 cell proliferation assay (Cell-Titer-Glo, 120 hr); details: for EC50: Homo sapiens, MDA-MB-231, 120 h, read-out: MDA-MB 231 Cell Prolif. 120 hr EC50; for MDA-MB 231 Cell Prolif. 120 hr YMin (%): minimal percent of DMSO control observed
Summary of the method: (§1)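 MKN45 (400/well) and MDA-MB-231 (800/well) cells in RPMI with 10% FBS were exposed to 10-point half-log doses from 1 or 10 uM (0.1% DMSO) for 120 h at 37 °C. Viability was read by CellTiter-Glo luminescence. EC50 came from blank-subtracted, %DMSO four-parameter fits, with Ymin-obs as the lowest %DMSO observed.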

WEE1 = target: T1, WEE1 (Homo sapiens, UniProt P30291+Q96SW2); experiment: WEE1-ePL degradation assay (293T-LentiX, InCELL Hunter luminescence, 4 hr); details: for 293T-LentiX WEE1-ePL Degradation 4 hr YMin (%): lower limit of fit, % of DMSO control signal remaining; for DC50: LentiX-HEK293T cells expressing WEE1-ePL, 4 hr incubation, read-out: 293T-LentiX WEE1-ePL Degradation 4 hr EC50
T1 construct: C-terminal ePL-tagged (DiscoverX, Fremont, CA) full-length WEE1 expression construct; expressed in transfected cells; host or cells: LentiX-HEK293T (Invitrogen), lentivirally transduced; the cells also over-express GSPT1-GN
T1 sequence (P30291 whole entry): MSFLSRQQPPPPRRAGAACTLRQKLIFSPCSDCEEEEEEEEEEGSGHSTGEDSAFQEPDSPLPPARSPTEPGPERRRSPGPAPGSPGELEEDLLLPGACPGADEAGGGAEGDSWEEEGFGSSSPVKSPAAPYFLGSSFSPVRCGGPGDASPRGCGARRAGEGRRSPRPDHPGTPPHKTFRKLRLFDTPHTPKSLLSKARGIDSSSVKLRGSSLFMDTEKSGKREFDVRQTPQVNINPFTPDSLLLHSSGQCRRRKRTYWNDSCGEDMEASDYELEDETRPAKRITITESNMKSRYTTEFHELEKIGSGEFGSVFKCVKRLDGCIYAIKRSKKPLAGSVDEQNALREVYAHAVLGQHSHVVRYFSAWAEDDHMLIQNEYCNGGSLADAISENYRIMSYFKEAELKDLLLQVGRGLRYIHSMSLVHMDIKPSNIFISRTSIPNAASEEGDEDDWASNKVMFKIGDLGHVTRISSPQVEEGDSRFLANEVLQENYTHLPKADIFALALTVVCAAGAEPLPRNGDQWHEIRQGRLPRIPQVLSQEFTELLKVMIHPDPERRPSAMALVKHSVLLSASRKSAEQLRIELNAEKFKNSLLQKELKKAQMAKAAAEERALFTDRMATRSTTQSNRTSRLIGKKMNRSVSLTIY
T1 sequence (Q96SW2 whole entry): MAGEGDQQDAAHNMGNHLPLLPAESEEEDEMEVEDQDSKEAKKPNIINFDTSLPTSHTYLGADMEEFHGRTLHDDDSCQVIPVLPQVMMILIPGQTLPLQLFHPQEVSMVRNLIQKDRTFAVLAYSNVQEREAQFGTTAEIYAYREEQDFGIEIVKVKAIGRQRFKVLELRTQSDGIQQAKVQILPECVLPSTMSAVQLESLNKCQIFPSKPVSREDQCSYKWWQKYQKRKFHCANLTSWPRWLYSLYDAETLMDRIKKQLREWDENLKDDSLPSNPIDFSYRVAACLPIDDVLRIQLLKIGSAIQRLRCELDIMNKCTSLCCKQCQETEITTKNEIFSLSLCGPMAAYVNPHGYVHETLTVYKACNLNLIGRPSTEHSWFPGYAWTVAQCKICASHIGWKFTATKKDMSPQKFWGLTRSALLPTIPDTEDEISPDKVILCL
T1 sequence (Q16531 whole entry partner): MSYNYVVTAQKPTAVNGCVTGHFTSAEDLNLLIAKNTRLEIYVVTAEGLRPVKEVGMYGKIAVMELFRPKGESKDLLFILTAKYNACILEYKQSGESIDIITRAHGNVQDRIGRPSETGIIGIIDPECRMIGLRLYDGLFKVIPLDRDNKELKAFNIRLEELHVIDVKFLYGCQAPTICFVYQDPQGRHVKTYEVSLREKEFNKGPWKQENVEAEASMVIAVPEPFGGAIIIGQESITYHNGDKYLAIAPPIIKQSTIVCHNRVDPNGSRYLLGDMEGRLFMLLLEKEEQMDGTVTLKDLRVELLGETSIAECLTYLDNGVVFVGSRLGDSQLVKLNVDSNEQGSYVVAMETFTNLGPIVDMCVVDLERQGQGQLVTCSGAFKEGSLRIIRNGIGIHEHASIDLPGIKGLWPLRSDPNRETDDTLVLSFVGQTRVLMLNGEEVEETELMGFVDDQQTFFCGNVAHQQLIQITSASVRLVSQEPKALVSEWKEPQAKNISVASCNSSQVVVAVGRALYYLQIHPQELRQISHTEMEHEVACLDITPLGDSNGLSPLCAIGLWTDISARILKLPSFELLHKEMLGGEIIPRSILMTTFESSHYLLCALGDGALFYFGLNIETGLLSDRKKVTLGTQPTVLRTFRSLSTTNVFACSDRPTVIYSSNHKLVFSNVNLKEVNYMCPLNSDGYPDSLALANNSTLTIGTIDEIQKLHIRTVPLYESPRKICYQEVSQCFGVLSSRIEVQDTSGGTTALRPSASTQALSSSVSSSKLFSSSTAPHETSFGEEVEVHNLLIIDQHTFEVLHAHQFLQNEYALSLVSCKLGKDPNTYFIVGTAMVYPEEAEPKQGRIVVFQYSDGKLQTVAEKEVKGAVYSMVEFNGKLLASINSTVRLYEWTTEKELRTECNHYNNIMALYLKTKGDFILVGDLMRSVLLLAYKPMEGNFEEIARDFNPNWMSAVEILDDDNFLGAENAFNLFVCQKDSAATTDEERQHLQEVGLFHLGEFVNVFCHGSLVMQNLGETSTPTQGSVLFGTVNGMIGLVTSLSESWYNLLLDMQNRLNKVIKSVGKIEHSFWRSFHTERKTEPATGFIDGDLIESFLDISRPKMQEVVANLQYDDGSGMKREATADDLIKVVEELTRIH
Summary of the method: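 LentiX-HEK293T cells expressing C-terminally ePL-tagged full-length WEE1 plus non-degradable GSPT1-GN (G575N, N-terminal 158 aa truncated). Treated 4 h at 37 °C with a 10-point, 3-fold series from 1 or 10 µM, then read by InCELL Hunter luminescence. EC50 from four-parameter logistic fit, Ymax set by DMSO control.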

MKN45 cells = experiment: MKN45 cell proliferation assay (Cell-Titer-Glo, 120 hr); details: for EC50: Homo sapiens, MKN-45, 120 h, read-out: MKN45 Cell Prolif. 120 hr EC50; for MKN45 Cell Prolif. 120 hr YMin (%): minimal percent of DMSO control observed
Summary of the method: as §1

| EC50 (MDA-MB-231 cells) [nM] | 293T-LentiX WEE1-ePL Degradation 4 hr YMin (%) (WEE1) | EC50 (MKN45 cells) [nM] | DC50 (WEE1) [nM] | SMILES | MDA-MB 231 Cell Prolif. 120 hr YMin (%) (MDA-MB-231 cells) | MKN45 Cell Prolif. 120 hr YMin (%) (MKN45 cells) |
| --- | --- | --- | --- | --- | --- | --- |
| 4 | 22.9 | 1 |  | COC[C@@H]1CN(Cc2cc3ccc(N4CCOCC4)c(F)c3cn2)C[C@H]1Oc1ccc2c(c1)CN([C@H]1CCC(=O)NC1=O)C2=O [Example 48, (3S)-3-(5-{[(3S,4S)-1-{[8-fluoro-7-(morpholin-4-yl)isoquinolin-3-yl]methyl}-4-(methoxymethyl)pyrrolidin-3-yl]oxy}-1-oxo-2,3-dihydro-1H-isoindol-2-yl)piperidine-2,6-dione] | 22.0 | 7.8 |
| 8 | 27.9 |  |  | COC[C@@H]1CN(Cc2cc(F)c3nc(C4CC(C)(C)OC(C)(C)C4)ccc3c2)C[C@H]1Oc1ccc2c(c1)CN([C@H]1CCC(=O)NC1=O)C2=O [Example 53, (3S)-3-(5-{[(3S,4S)-1-{[8-fluoro-2-(2,2,6,6-tetramethyloxan-4-yl)quinolin-6-yl]methyl}-4-(methoxymethyl)pyrrolidin-3-yl]oxy}-1-oxo-2,3-dihydro-1H-isoindol-2-yl)piperidine-2,6-dione] | 13.4 | 10.5 |
| 16 | 27.9 |  |  | COC[C@@H]1CN(Cc2cc(F)c3nc(C45CCC(O)(CC4)CC5)ccc3c2)C[C@H]1Oc1ccc2c(c1)CN([C@H]1CCC(=O)NC1=O)C2=O [Example 55, (3S)-3-(5-{[(3S,4S)-1-[(8-fluoro-2-{4-hydroxybicyclo[2.2.2]octan-1-yl}quinolin-6-yl)methyl]-4-(methoxymethyl)pyrrolidin-3-yl]oxy}-1-oxo-2,3-dihydro-1H-isoindol-2-yl)piperidine-2,6-dione] | 22.6 | 10.9 |
| 19 | 29.9 |  |  | COC[C@@H]1CN(Cc2cc(F)c3nc(C45CC(C(C)(C)O)(C4)C5)ccc3c2)C[C@H]1Oc1ccc2c(c1)CN([C@H]1CCC(=O)NC1=O)C2=O [Example 56, (3S)-3-(5-{[(3S,4S)-1-({8-fluoro-2-[3-(2-hydroxypropan-2-yl)bicyclo[1.1.1]pentan-1-yl]quinolin-6-yl}methyl)-4-(methoxymethyl)pyrrolidin-3-yl]oxy}-1-oxo-2,3-dihydro-1H-isoindol-2-yl)piperidine-2,6-dione] | 25.5 | 10.0 |
| 213 | 31.1 | 6 | 5 | COC[C@@H]1CN(Cc2cc(F)c3nc(C(=O)N(C)C)ccc3c2)C[C@H]1Oc1ccc2c(c1)CN([C@H]1CCC(=O)NC1=O)C2=O [Example 58, 6-{[(3S,4S)-3-({2-[(3S)-2,6-dioxopiperidin-3-yl]-1-oxo-2,3-dihydro-1H-isoindol-5-yl}oxy)-4-(methoxymethyl)pyrrolidin-1-yl]methyl}-8-fluoro-N,N-dimethylquinoline-2-carboxamide] | 28.1 | 11.2 |
| 61 | 29.1 | 1 | 1 | COC[C@@H]1CN(Cc2cc(F)c3nc(N4CCCC4=O)ccc3c2)C[C@H]1Oc1ccc2c(c1)CN([C@H]1CCC(=O)NC1=O)C2=O [Example 59, (3S)-3-(5-{[(3S,4S)-1-{[8-fluoro-2-(2-oxopyrrolidin-1-yl)quinolin-6-yl]methyl}-4-(methoxymethyl)pyrrolidin-3-yl]oxy}-1-oxo-2,3-dihydro-1H-isoindol-2-yl)piperidine-2,6-dione] | 12.1 | 10.7 |
| 54 | 27.4 | 3 | 1 | COC[C@@H]1CN(Cc2cc(F)c3nc(C4(O)CCOCC4)ccc3c2)C[C@H]1Oc1ccc2c(c1)CN([C@H]1CCC(=O)NC1=O)C2=O [Example 60, (3S)-3-(5-{[(3S,4S)-1-{[8-fluoro-2-(4-hydroxyoxan-4-yl)quinolin-6-yl]methyl}-4-(methoxymethyl)pyrrolidin-3-yl]oxy}-1-oxo-2,3-dihydro-1H-isoindol-2-yl)piperidine-2,6-dione] | 33.7 | 11.7 |
| 98 | 29.3 | 9 | 25 | COC[C@@H]1CN(Cc2cc(F)c3nc(N4CCCC4=O)ncc3c2)C[C@H]1Oc1ccc2c(c1)CN([C@H]1CCC(=O)NC1=O)C2=O [Example 61, (3S)-3-(5-{[(3S,4S)-1-{[8-fluoro-2-(2-oxopyrrolidin-1-yl)quinazolin-6-yl]methyl}-4-(methoxymethyl)pyrrolidin-3-yl]oxy}-1-oxo-2,3-dihydro-1H-isoindol-2-yl)piperidine-2,6-dione] | 41.3 | 12.0 |
| 100 | 31.6 | 7 | 4 | COC[C@@H]1CN(Cc2cc(F)c3nc(C4(O)CCOCC4)ncc3c2)C[C@H]1Oc1ccc2c(c1)CN([C@H]1CCC(=O)NC1=O)C2=O [Example 62, (3S)-3-(5-{[(3S,4S)-1-{[8-fluoro-2-(4-hydroxyoxan-4-yl)quinazolin-6-yl]methyl}-4-(methoxymethyl)pyrrolidin-3-yl]oxy}-1-oxo-2,3-dihydro-1H-isoindol-2-yl)piperidine-2,6-dione] | 33.0 | 11.9 |
| 42 | 29.2 | 2 | 3 | COC[C@@H]1CN(Cc2cc(F)c3nc(N4CCC(O)CC4)ncc3c2)C[C@H]1Oc1ccc2c(c1)CN([C@H]1CCC(=O)NC1=O)C2=O [Example 63, (3S)-3-(5-{[(3S,4S)-1-{[8-fluoro-2-(4-hydroxypiperidin-1-yl)quinazolin-6-yl]methyl}-4-(methoxymethyl)pyrrolidin-3-yl]oxy}-1-oxo-2,3-dihydro-1H-isoindol-2-yl)piperidine-2,6-dione] | 22.6 | 9.2 |
| 23 | 28.5 | 2 | 1 | COC[C@@H]1CN(Cc2cc(F)c3nc(N4CCC(O)CC4)ccc3c2)C[C@H]1Oc1ccc2c(c1)CN([C@H]1CCC(=O)NC1=O)C2=O [Example 64, (S)-3-(5-(((3S,4S)-1-((8-fluoro-2-(4-hydroxypiperidin-1-yl)quinolin-6-yl)methyl)-4-(methoxymethyl)pyrrolidin-3-yl)oxy)-1-oxoisoindolin-2-yl)piperidine-2,6-dione] | 17.1 | 8.8 |
| 5 | 25.3 | 1 |  | COC[C@@H]1CN(Cc2ncc3cc(N4CCOCC4)ccc3c2F)C[C@H]1Oc1ccc2c(c1)CN([C@H]1CCC(=O)NC1=O)C2=O [Example 71, (3S)-3-(5-{[(3S,4S)-1-{[4-fluoro-7-(morpholin-4-yl)isoquinolin-3-yl]methyl}-4-(methoxymethyl)pyrrolidin-3-yl]oxy}-1-oxo-2,3-dihydro-1H-isoindol-2-yl)piperidine-2,6-dione] | 26.6 | 8.7 |
| 14 | 27.3 | 1 | 1 | COC[C@@H]1CN(Cc2cc(F)c3nc(N4CCC45CCOCC5)ccc3c2)C[C@H]1Oc1ccc2c(c1)CN([C@H]1CCC(=O)NC1=O)C2=O [Example 72, (3S)-3-(5-{[(3S,4S)-1-[(8-fluoro-2-{7-oxa-1-azaspiro [3.5]nonan-1-yl}quinolin-6-yl)methyl]-4-(methoxymethyl)pyrrolidin-3-yl]oxy}-1-oxo-2,3-dihydro-1H-isoindol-2-yl)piperidine-2,6-dione] | 20.7 | 9.3 |
| 41 | 28.9 | 3 | 1 | COC[C@@H]1CN(Cc2cc(F)c3nc(N4CCC45CCOCC5)ncc3c2)C[C@H]1Oc1ccc2c(c1)CN([C@H]1CCC(=O)NC1=O)C2=O [Example 73, (3S)-3-(5-{[(3S,4S)-1-[(8-fluoro-2-{7-oxa-1-azaspiro[3.5]nonan-1-yl}quinazolin-6-yl)methyl]-4-(methoxymethyl)pyrrolidin-3-yl]oxy}-1-oxo-2,3-dihydro-1H-isoindol-2-yl)piperidine-2,6-dione] | 34.0 | 9.4 |
